The source of these data is patent US20250011368A1, “DLL3 TARGETING PEPTIDES AND CONSTRUCTS THEREOF” (MARIANA ONCOLOGY INC., priority 2023, published 2025).

Bridge positions count the residues as written; N and C are the ends. Square brackets hold non-standard residues; d marks the D form. Peptide text beside a SMILES is read from it. * marks the point of attachment. ξ: configuration not given here. X4 = O=C(O)CN1CCN(CC(=O)O)CCN(CC(=O)N[C@H]2CC[C@H](CC(=O)*)CC2)CCN(CC(=O)O)CC1; DOTA = O=C(O)CN1CCN(CC(=O)O)CCN(CC(=O)*)CCN(CC(=O)O)CC1; Trp(5-OMe) = COc1ccc2[nH]cc(C[C@H](N)C(=O)O)c2c1; Phe(4-CF3) = N[C@@H](Cc1ccc(C(F)(F)F)cc1)C(=O)O; Trp(5-F) = N[C@@H](Cc1c[nH]c2ccc(F)cc12)C(=O)O; Phe(2-CF3) = N[C@@H](Cc1ccccc1C(F)(F)F)C(=O)O; Trp(7-aza) = N[C@@H](Cc1c[nH]c2ncccc12)C(=O)O; Pro(trans-4-F) = O=C(O)[C@@H]1C[C@@H](F)CN1; 1Nal = N[C@@H](Cc1cccc2ccccc12)C(=O)O; 2Nal = N[C@@H](Cc1ccc2ccccc2c1)C(=O)O; Nva(3-Et) = CCC(CC)[C@H](N)C(=O)O; Palmitoyl = CCCCCCCCCCCCCCCC(=O)*; ξThr(3R) = C[C@@H](O)C(N)C(=O)O; NMeL = CN[C@@H](CC(C)C)C(=O)O; Orn = NCCC[C@H](N)C(=O)O; Aze = O=C(O)[C@@H]1CCN1

The assay concerns the target T1, human DLL3 (Homo sapiens, UniProt Q9NYJ7).
T1 sequence (Q9NYJ7 27-618): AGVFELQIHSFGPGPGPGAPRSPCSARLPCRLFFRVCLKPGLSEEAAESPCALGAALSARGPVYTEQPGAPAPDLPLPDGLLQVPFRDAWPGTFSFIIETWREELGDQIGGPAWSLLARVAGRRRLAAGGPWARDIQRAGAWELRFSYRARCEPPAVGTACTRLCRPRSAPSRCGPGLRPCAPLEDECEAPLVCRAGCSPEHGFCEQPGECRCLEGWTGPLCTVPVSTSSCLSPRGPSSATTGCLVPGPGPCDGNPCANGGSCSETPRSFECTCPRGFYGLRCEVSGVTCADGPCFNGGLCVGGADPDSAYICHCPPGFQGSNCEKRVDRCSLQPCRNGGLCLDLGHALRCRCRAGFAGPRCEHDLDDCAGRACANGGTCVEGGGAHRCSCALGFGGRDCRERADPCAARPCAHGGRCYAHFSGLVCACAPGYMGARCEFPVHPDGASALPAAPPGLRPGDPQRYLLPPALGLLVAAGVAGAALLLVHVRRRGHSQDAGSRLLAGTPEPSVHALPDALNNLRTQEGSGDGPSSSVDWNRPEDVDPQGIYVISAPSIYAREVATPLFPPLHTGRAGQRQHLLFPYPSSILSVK
As to the kind of experiment: Affinity determination by Surface Plasmon Resonance (SPR). The format is binding. The settings on record: 25° C., biotinylated human DLL3 immobilized on streptavidin sensor chip, 1:1 binding model; read-out: SPR KD. An outline of the steps: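 Biotinylated human DLL3 was captured on a streptavidin chip with a reference surface. Compounds at several concentrations were injected at 100 μL/minute in phosphate buffer (137 mM NaCl, 2.7 mM KCl, 0.05% P20, 2% DMSO). Affinity and kinetics came from 1:1 model fits of the sensorgrams.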
For `CCC(CC)[C@H](NC(=O)[C@@H](NC(=O)[C@H](Cc1c[nH]c2ccc(F)cc12)NC(C)=O)[C@@H](C)O)C(=O)N[C@H]1CSSC[C@@H](C(=O)N[C@@H](Cc2c[nH]c3ncccc23)C(=O)N2CC[C@H]2C(=O)N[C@H](CCCCNC(=O)CN2CCN(CC(=O)O)CCN(CC(=O)O)CCN(CC(=O)O)CC2)C(N)=O)NC(=O)[C@H](CC(=O)O)NC(=O)[C@H](Cc2c[nH]cn2)NC(=O)[C@H](Cc2ccc(C(F)(F)F)cc2)NC(=O)[C@H](CC(N)=O)NC(=O)[C@H](CC(N)=O)NC1=O` [compound 138, Ac-(5Fluoro-W)-T-(Env)-C(3)-N-N-(4CF3-F)-H-D-C(3)-(7Aza-W)-(Aze)-[D-Lys(DOTA)]-NH2] (Ac-[Trp(5-F)]T[Nva(3-Et)]CNN[Phe(4-CF3)]HDC[Trp(7-aza)][Aze][dK](DOTA)-NH2; disulfide 4-10), the Kd (usually the constant that tells how readily two partners part at equilibrium) lay in the range of 10 to 100 nM.

As for `CC(=O)N[C@@H](Cc1c[nH]c2ccc(F)cc12)C(=O)N[C@H](C(=O)N[C@@H](Cc1ccccc1C(F)(F)F)C(=O)N[C@H]1CSSC[C@@H](C(=O)N[C@@H](Cc2c[nH]c3ncccc23)C(=O)N2C[C@H](F)C[C@H]2C(=O)N[C@H](CCCCNC(=O)CN2CCN(CC(=O)O)CCN(CC(=O)O)CCN(CC(=O)O)CC2)C(N)=O)NC(=O)[C@H](CC(=O)O)NC(=O)[C@H](Cc2cnc[nH]2)NC(=O)[C@H](Cc2ccc(C(F)(F)F)cc2)NC(=O)[C@H](CC(N)=O)NC(=O)[C@H](CC(N)=O)NC1=O)[C@@H](C)O` [compound 152, Ac-(5Fluoro-W)-T-(2CF3-F)-C(3)-N-N-(4CF3-F)-H-D-C(3)-(7Aza-W)-(trans4Fluoro-P)-[D-Lys(DOTA)]-NH2] (Ac-[Trp(5-F)]T[Phe(2-CF3)]CNN[Phe(4-CF3)]HDC[Trp(7-aza)][Pro(trans-4-F)][dK](DOTA)-NH2; disulfide 4-10), the Kd lay in the range of 1 to 10 nM.

Turning to `CC[C@H](C)[C@H](NC(=O)[C@@H](NC(=O)[C@H](Cc1c[nH]c2ccccc12)NC(C)=O)[C@@H](C)O)C(=O)N[C@H]1CSSC[C@@H](C(=O)N[C@@H](Cc2c[nH]c3ccccc23)C(=O)N2CCC[C@H]2C(=O)N[C@H](CCCCNC(=O)CN2CCN(CC(=O)O)CCN(CC(=O)O)CCN(CC(=O)O)CC2)C(=O)O)NC(=O)[C@H](CC(=O)O)NC(=O)[C@H](CCCN)NC(=O)[C@H](Cc2ccc3ccccc3c2)NC(=O)[C@H](CC(N)=O)NC(=O)[C@H](CC(N)=O)NC1=O` [compound 376, Ac-W-T-I-C(3)-N-N-(2Nal)-Orn-D-C(3)-W-P-[D-Lys(DOTA)]-NH2] (Ac-WTICNN[2Nal][Orn]DCWP[dK](DOTA)-OH; disulfide 4-10), the Kd is less than 1 nM.

For the molecule `CCC(CC)[C@H](NC(=O)[C@@H](NC(=O)[C@H](Cc1c[nH]c2ccc(F)cc12)NC(C)=O)[C@@H](C)O)C(=O)N[C@H]1CSSC[C@@H](C(=O)N[C@@H](Cc2c[nH]c3ncccc23)C(=O)N2C[C@H](F)C[C@H]2C(=O)N[C@@H](CCCCNC(=O)CN2CCN(CC(=O)O)CCN(CC(=O)O)CCN(CC(=O)O)CC2)C(N)=O)NC(=O)[C@H](CC(=O)O)NC(=O)[C@H](Cc2cnc[nH]2)NC(=O)[C@H](Cc2ccc3ccccc3c2)NC(=O)[C@H](CC(N)=O)NC(=O)[C@H](CC(N)=O)NC1=O` [compound 242, Ac-(5Fluoro-W)-T-(Env)-C(3)-N-N-(2Nal)-H-D-C(3)-(7Aza-W)-(trans4Fluoro-P)-[D-Lys(DOTA)]-NH2] (Ac-[Trp(5-F)]T[Nva(3-Et)]CNN[2Nal]HDC[Trp(7-aza)][Pro(trans-4-F)]K(DOTA)-NH2; disulfide 4-10), the equilibrium dissociation constant (Kd) was less than 1 nM.

On to `CCCCCCCCCCCCCCCC(=O)NCCCC[C@H](NC(=O)[C@@H](NC(=O)[C@H](Cc1c[nH]c2ccccc12)NC(C)=O)[C@@H](C)O)C(=O)N[C@H]1CSSC[C@@H](C(=O)N[C@@H](Cc2c[nH]c3ccccc23)C(=O)N2CCC[C@H]2C(=O)N[C@H](CCCCNC(=O)CN2CCN(CC(=O)O)CCN(CC(=O)O)CCN(CC(=O)O)CC2)C(N)=O)NC(=O)[C@H](CC(=O)O)NC(=O)[C@H](Cc2cnc[nH]2)NC(=O)[C@H](Cc2c[nH]c3ccccc23)NC(=O)[C@H](CC(N)=O)NC(=O)[C@H](CC(N)=O)NC1=O` [compound 348, Ac-W-T-K(C16)-C(3)-N-N-W-H-D-C(3)-W-P-[D-Lys(DOTA)]-NH2] (Ac-WTK(Palmitoyl)CNNWHDCWP[dK](DOTA)-NH2; disulfide 4-10), for which the Kd is 100 to 300 nM.

Regarding `CC[C@H](C)[C@H](NC(=O)[C@@H](NC(=O)[C@H](Cc1c[nH]c2ccccc12)NC(C)=O)[C@@H](C)O)C(=O)N[C@H]1CSSC[C@@H](C(=O)N[C@@H](Cc2cccc3ccccc23)C(=O)N2CCC[C@H]2C(=O)N[C@H](CCCCNC(=O)CN2CCN(CC(=O)O)CCN(CC(=O)O)CCN(CC(=O)O)CC2)C(N)=O)NC(=O)[C@H](CC(=O)O)NC(=O)[C@H](Cc2cnc[nH]2)NC(=O)[C@H](Cc2c[nH]c3ccccc23)NC(=O)[C@H](CC(N)=O)NC(=O)[C@H](CC(N)=O)NC1=O` [compound 76, Ac-W-T-I-C(3)-N-N-W-H-D-C(3)-(1Nal)-P-[D-Lys(DOTA)]-NH2] (Ac-WTICNNWHDC[1Nal]P[dK](DOTA)-NH2; disulfide 4-10), the Kd is 1 to 10 nM.

Regarding `CCC(CC)[C@H](NC(=O)C(NC(=O)[C@H](Cc1c[nH]c2ccccc12)NC(C)=O)[C@@H](C)O)C(=O)N[C@H]1CSSC[C@@H](C(=O)N[C@@H](Cc2c[nH]c3ncccc23)C(=O)N2CCC[C@H]2C(=O)N[C@H](CCCCNC(=O)CN2CCN(CC(=O)O)CCN(CC(=O)O)CCN(CC(=O)O)CC2)C(N)=O)NC(=O)[C@H](CC(=O)O)NC(=O)[C@H](Cc2cnc[nH]2)NC(=O)[C@H](Cc2ccc3ccccc3c2)NC(=O)[C@H](CC(N)=O)NC(=O)[C@H](CC(N)=O)NC1=O` (stereo partly drawn) [compound 193, Ac-W-T-(Env)-C(3)-N-N-(2Nal)-H-D-C(3)-(7-Aza-W)-P-[D-Lys(DOTA)]-NH2] (Ac-W[ξThr(3R)][Nva(3-Et)]CNN[2Nal]HDC[Trp(7-aza)]P[dK](DOTA)-NH2; disulfide 4-10), the Kd is less than 1 nM.

`CC[C@H](C)[C@H](NC(=O)[C@@H](NC(=O)[C@H](Cc1c[nH]c2ccccc12)NC(C)=O)[C@@H](C)O)C(=O)N[C@H]1CSSC[C@@H](C(=O)N[C@@H](Cc2c[nH]c3ccccc23)C(=O)N2CCC[C@H]2C(=O)N[C@H](CCCCNC(=O)CN2CCN(CC(=O)O)CCN(CC(=O)O)CCN(CC(=O)O)CC2)C(N)=O)NC(=O)[C@H](CC(=O)O)NC(=O)[C@H](Cc2cnc[nH]2)NC(=O)[C@H](Cc2c[nH]c3ccc(OC)cc23)NC(=O)[C@H](CC(N)=O)NC(=O)[C@H](CC(N)=O)NC1=O` [compound 86, Ac-W-T-I-C(3)-N-N-(5Ome-W)-H-D-C(3)-W-P-[D-Lys(DOTA)]-NH2] (Ac-WTICNN[Trp(5-OMe)]HDCWP[dK](DOTA)-NH2; disulfide 4-10): the Kd was in the range of 10 to 100 nM.

As for `CCC(CC)[C@H](NC(=O)[C@@H](NC(=O)[C@H](Cc1c[nH]c2ccccc12)NC(C)=O)[C@@H](C)O)C(=O)N[C@H]1CSSC[C@@H](C(=O)N[C@@H](Cc2c[nH]c3ncccc23)C(=O)N2CCC[C@H]2C(=O)N[C@H](CCCCNC(=O)C[C@H]2CC[C@H](NC(=O)CN3CCN(CC(=O)O)CCN(CC(=O)O)CCN(CC(=O)O)CC3)CC2)C(N)=O)NC(=O)[C@H](CC(=O)O)NC(=O)[C@H](Cc2cnc[nH]2)NC(=O)[C@H](Cc2ccc3ccccc3c2)NC(=O)[C@H](CC(N)=O)NC(=O)[C@H](CC(N)=O)NC1=O` [compound 202, Ac-W-T-(Env)-C(3)-N-N-(2Nal)-H-D-C(3)-(7-Aza-W)-P-[D-Lys(Chx-DOTA)]-NH2] (Ac-WT[Nva(3-Et)]CNN[2Nal]HDC[Trp(7-aza)]P[dK](X4)-NH2; disulfide 4-10), the dissociation constant (Kd) was in the range of 1 to 10 nM.

On to `CC(=O)N[C@@H](Cc1c[nH]c2ccc(F)cc12)C(=O)N[C@H](C(=O)N[C@@H](Cc1ccccc1C(F)(F)F)C(=O)N[C@H]1CSSC[C@@H](C(=O)N[C@@H](Cc2c[nH]c3ncccc23)C(=O)N2C[C@H](F)C[C@H]2C(=O)N[C@@H](CCCCNC(=O)CN2CCN(CC(=O)O)CCN(CC(=O)O)CCN(CC(=O)O)CC2)C(N)=O)NC(=O)[C@H](CC(=O)O)NC(=O)[C@H](Cc2cnc[nH]2)NC(=O)[C@H](Cc2ccc3ccccc3c2)NC(=O)[C@H](CC(N)=O)NC(=O)[C@H](CC(N)=O)NC1=O)[C@@H](C)O` [compound 246, Ac-(5Fluoro-W)-T-(2CF3-F)-C(3)-N-N-(2Nal)-H-D-C(3)-(7Aza-W)-(trans4Fluoro-P)-[D-Lys(DOTA)]-NH2] (Ac-[Trp(5-F)]T[Phe(2-CF3)]CNN[2Nal]HDC[Trp(7-aza)][Pro(trans-4-F)]K(DOTA)-NH2; disulfide 4-10), for which the Kd was less than 1 nM.

Regarding `CC[C@H](C)[C@H](NC(=O)[C@@H](NC(=O)[C@H](Cc1c[nH]c2ccccc12)NC(C)=O)[C@@H](C)O)C(=O)N[C@H]1CSSC[C@@H](C(=O)N[C@@H](Cc2c[nH]c3ccccc23)C(=O)N(C)[C@@H](CC(C)C)C(=O)N[C@H](CCCCNC(=O)CN2CCN(CC(=O)O)CCN(CC(=O)O)CCN(CC(=O)O)CC2)C(N)=O)NC(=O)[C@H](CC(=O)O)NC(=O)[C@H](Cc2cnc[nH]2)NC(=O)[C@H](Cc2c[nH]c3ccccc23)NC(=O)[C@H](CC(N)=O)NC(=O)[C@H](CC(N)=O)NC1=O` [compound 345, Ac-W-T-I-C(3)-N-N-W-H-D-C(3)-W-NmeL-[D-Lys(DOTA)]-NH2] (Ac-WTICNNWHDCW[NMeL][dK](DOTA)-NH2; disulfide 4-10), the Kd lay within 1 to 10 nM.
